Columns and labels:
sphaerotheca fuliginea = experiment: Sphaerotheca-test (cucumber); type: in vivo; settings: protective, application rate 500 ppm, evaluated 7 days after inoculation
Podosphaera leucotricha = experiment: Podosphaera test (apple)/protective; type: in vivo; settings: protective, application rate 100 g/ha, evaluated 7 days after inoculation
Procedure: Podosphaera Test (Apple)/Protective
(§1) To produce a suitable preparation of active compound, 1 part by weight of active compound is mixed with the stated amounts of solvent and emulsifier, and the concentrate is diluted with water to the desired concentration.
To test for protective activity, young plants are sprayed with the preparation of active compound at the stated rate of application. After the spray coating has dried on, the plants are inoculated with an aqueous spore suspension of the causal agent of apple mildew (Podosphaera leucotricha). The plants are then placed in a greenhouse at approximately 23° C. and a relative atmospheric humidity of approximately 70%.
The test is evaluated 7 days after the inoculation. 0% means an efficacy which corresponds to that of the control, while an efficacy of 100% means that no disease is observed.

Venturia inaequalis = experiment: Venturia test (apples)/protective; type: in vivo; settings: protective, application rate 100 g/ha, evaluated 10 days after inoculation
Procedure: Venturia Test (Apples)/Protective
as §1
To test for protective activity, young plants are sprayed with the preparation of active compound at the stated rate of application. After the spray coating has dried on, the plants are inoculated with an aqueous conidia suspension of the causal agent of apple scab (Venturia inaequalis) and then remain for 1 day in an incubation cabinet at approximately 20° C. and a relative atmospheric humidity of 100%.
The plants are then placed in a greenhouse at approximately 21° C. and a relative atmospheric humidity of approximately 90%.
The test is evaluated 10 days after the inoculation. 0% means an efficacy which corresponds to that of the control, while an efficacy of 100% means that no disease is observed.

Botrytis cinerea = experiment: Botrytis test (beans)/protective; type: in vivo; settings: protective, application rate 500 g/ha, lesion size 2 days after inoculation
Procedure: Botrytis Test (Beans)/Protective
as §1
To test for protective activity, young plants are sprayed with the preparation of active compound. After the spray coating has dried on, 2 small pieces of agar covered with growth of Botrytis cinerea are placed on each leaf. The inoculated plants are placed in a darkened chamber at 20° C. and a relative atmospheric humidity of 100%.
2 days after the inoculation, the size of the lesions on the leaves is evaluated. 0% means an efficacy which corresponds to that of the control, while an efficacy of 100% means that no disease is observed.

Spodoptera frugiperda = experiment: Spodoptera frugiperda-test (sensible strain); type: in vivo; settings: cabbage leaves dipped, larvae, after six days
Procedure: Spodoptera frugiperda-Test (Sensible Strain)
Pieces of cabbage leaves (Brassica oleracea) are treated by being dipped into the preparation of the active compound of the desired concentration and are infested with larvae of the fall army worm (Spodoptera frugiperda) as long as the leaves are still moist.
After six days the mortality in % is determined. 100% means that all the caterpillars have been killed; 0% means that none of the caterpillars have been killed.

| SMILES | efficacy (sphaerotheca fuliginea) [%] | chromatographic logP | other results |
| --- | --- | --- | --- |
| CCCCCC[C@H]1C(=O)N[C@@]2([C@@H](O)C(C)C)C(=O)O[C@@]12C [Example 8, (1R,4R,5S)-4-hexyl-1-[(1S)-1-hydroxy-2-methylpropyl]-5-methyl-6-oxa-2-azabicyclo[3.2.0]heptane-3,7-dione] | 70 | – | – |
| CCCCCC[C@H]1C(=O)N[C@@]2([C@@H](O)[C@@H]3C=CCCC3)C(=O)O[C@@]12C [Example 1, (1R,4R,5S)-1-[(S)-(1S)-2-cyclohexen-1-yl(hydroxy)methyl]-4-hexyl-5-methyl-6-oxa-2-azabicyclo[3.2.0]heptane-3,7-dione] | 70 | – | efficacy (Podosphaera leucotricha): 100%; efficacy (Venturia inaequalis): 100%; efficacy (Botrytis cinerea): more than 90%; efficacy (mortality) (Spodoptera frugiperda): 100% |
| CCCCCC[C@H]1C(=O)N[C@@]2([C@@H](O)C(C)C)C(=O)O[C@@]12C [(1R,4R,5S)-4-hexyl-1-[(1S)-1-hydroxy-2-methylpropyl]-5-methyl-6-oxa-2-azabicyclo[3.2.0]heptane-3,7-dione] | – | 2.87 | – |
| CCCCCC[C@@H]1C(=O)N[C@@]2([C@@H](O)C(C)C)C(=O)O[C@@]12C [(1R,4S,5S)-4-hexyl-1-[(1S)-1-hydroxy-2-methylpropyl]-5-methyl-6-oxa-2-azabicyclo[3.2.0]heptane-3,7-dione] | – | 2.79 | – |

From patent US20080064736A1, “Substituted 2-Pyrrolidone Derivatives as Fungicides and Insecticides” (Bayer Cropscience AG, priority 2004, published 2008)
